Data set [1] concerns the target T1, D/I Aβ-oligomers (Homo sapiens, UniProt P05067, D694N/E693Q).
T1 construct: (Gln^22, Asn^23)-Amyloid β-Protein (1-40) (D/I Aβ); purchased Bachem (Bubendorf, Switzerland); host or cells: chemical synthesis
Description: QIAD assay, D/I Aβ oligomer elimination. Format: biochemical. The conditions noted are these: 40 µM D/I Aβ preincubated 15 min, 10 µM D-peptide, 30 min coincubation, density gradient fractions 4-6, RP-HPLC UV 214 nm, N = 2-5. On the procedure: According to Brener et al., a QIAD assay was performed in order to evaluate the Aβ(1-42) or D/I Aβ oligomer elimination efficacies of RD2D3 and cRD2D3 [18]. In short, 80 µM lyophilized Aβ(1-42) or 40 µM D/I Aβ was preincubated for 2 h or 15 min, respectively, to enrich Aβ-oligomers. Afterwards, either 20 µM RD2D3 or cRD2D3 for Aβ(1-42) or 10 µM RD2D3 or cRD2D3 for D/I Aβ were added to the preincubated solution and coincubated for additional 30 min. Subsequently, the samples were loaded on the top of a density gradient (5–50% (w/v) iodixanol (OptiPrep, Sigma-Aldrich, Darmstadt, Germany)) followed by an ultracentrifugation step (3 h at 4 °C and 259000× g (Optima TL-100, Beckman Coulter, Brea, CA, USA)). Following the ultracentrifugation, 14 fractions (140 µL each) were harvested by upward displacement. Fraction 15 contains the dissolved pellet in 6 M guanidine hydrochloride solution. Top fractions 1–2 contained Aβ-monomers, fractions 4–6 contained the Aβ-oligomers, which are of special interest, and the bottom fractions 11–14 contained high molecular weight (co-)precipitates or aggregated Aβ. Aβ(1-42) or D/I Aβ concentrations of each fraction were determined via analytical RP-HPLC and UV absorbance detection at 214 nm.

Data set [2] can be described thus: Proteolytic stability in human plasma. Format: in vitro ADME. On the procedure:
(§1) Both compounds have already been extensively studied with respect to their in vivo pharmacokinetic profiles. Here, we performed some additional test to investigate the proteolytic stability of the compounds in simulated gastric (SGF) and intestinal fluid (SIF) and human plasma and human liver microsomes. The experiments were performed as described previously. According to the guidelines of the European Pharmacopoeia 7.0, SGF and SIF were prepared. Plasma was purchased from Biotrend with K3-EDTA as an anticoagulant (Biotrend, Köln, Germany). Human liver microsomes were pooled from different donors and purchased from Sekisui XenoTech (Kansas City, KS, USA). In order to determine whether the compounds RD2D3 and cRD2D3 are stable or would be metabolized, 150 µM of each compound was incubated in triplicate for defined time points slightly shaking at 37 °C in the media described above (SGF and SIF: 4 and 8 h, plasma: 8, 24 and 48 h and microsomes: 8 and 24 h). Incubation was stopped by precipitating the proteins. For this, 3% trichloroacetic acid (w/v) was added to the respective sample under vortexing followed by a centrifugation step (14,000× g at 4 °C for 5 min). For analysis, supernatants containing the compounds were collected. The precipitated media without compound was used as a control and as reference for the quantification served each medium with compound where the reaction was stopped immediately by precipitating the proteins. All samples were analyzed by RP-HPLC as previously described.

Data set [3] is described as follows: Proteolytic stability in simulated intestinal fluid (SIF). Format: in vitro ADME. On the procedure:
as §1

For data set [4] the following is noted: cited from earlier work. The source says: Our society is aging and, with it, the number of diseases of old age, especially dementias, are increasing. Alzheimer’s disease (AD) is a devastating neurodegenerative disorder and the most common form of dementia worldwide. Its clinical symptoms are considered to be disturbances of memory, language, spatial and temporal orientation and cognitive decline. The pathological hallmarks of the disease are characterized by neurodegeneration, intracellular depositions of neurofibrillary tangles and extracellular accumulations of amyloid-β (Aβ) plaques.

Data set [5] in a line: Proteolytic stability in human liver microsomes. The format is in vitro ADME. On the procedure:
as §1
Background: Liver microsomes are a subcellular fraction often used to study metabolism.

Data set [6] in a line: Proteolytic stability in simulated gastric fluid (SGF). The format is in vitro ADME. On the procedure:
as §1

Data set [7] has as its target T2, Aβ(1-42) (Homo sapiens, UniProt P05067).
T2 construct: Synthetic Aβ(1-42) and (Gln^22, Asn^23)-Amyloid β-Protein (1-40) (D/I Aβ) with >95% purity were purchased; purchased Bachem (Bubendorf, Switzerland); host or cells: chemical synthesis
Description: SPR, Aβ(1-42) immobilized, D-peptide as analyte. Format: binding. The conditions noted are these: SPR Biacore T200, Aβ(1-42) immobilized on CM-5 chip by amine coupling, D-peptide analyte 0.625-20 µM, multicycle, 10 mM HEPES + 50 mM NaCl pH 7.4, 25 °C, steady-state Langmuir 1:1 fit (Fig. 1a). The method, then: The dissociation constant (KD) of RD2D3 and cRD2D3 binding to Aβ(1-42) and D/I Aβ was determined by SPR spectroscopy using a Biacore T200 instrument (Biacore, GE Healthcare, Uppsala, Sweden). Aβ(1-42) or D/I Aβ was used as the ligand, while RD2D3 and cRD2D3 were used as the analyte or vice versa.
By using Aβ(1-42) or D/I Aβ as a ligand, it was immobilized onto a series S CM-5 sensor chip (GE Healthcare, Uppsala, Sweden) by amine coupling. In short, the flow cells were activated by a mixture of 50 mM N-hydroxysuccinimide (NHS) and 16.1 mM N-Ethyl-N’-(dimethylaminopropyl)carbodiimide (EDC) (XanTec, Düsseldorf, Germany) for 7 min. Aβ(1-42) or D/I Aβ were dissolved to a final concentration of 50 µg/mL in 10 mM sodium acetate pH 5 (AppliChem, Darmstadt, Germany) and injected over one of the activated flow cells to a final signal of 1700 RU. After the immobilization, the ligand and reference flow cells were quenched by injecting 1 M ethanolamine pH 8.5 (XanTec, Düsseldorf, Germany) for 7 min. […] The peptides were diluted in the running buffer to the following concentrations: 20 µM, 10 µM, 5 µM, 2.5 µM, 1.25 µM and 0.625 µM. All samples were injected over the flow cells for 180 s, followed by a dissociation step of 600 s with running buffer. Regeneration of the sensor chip was accomplished by a 45 s injection of 2 M of guanidinium hydrochloride (AppliChem, Darmstadt, Germany). […]
On the technique in general: In SPR one partner is held on a chip, and binding of the other changes the refractive index at the surface.

The values that follow come from publication PMC8234218, “In Vitro and In Vivo Efficacies of the Linear and the Cyclic Version of an All-D-Enantiomeric Peptide Developed for the Treatment of Alzheimer’s Disease” (International Journal of Molecular Sciences, 2021).

Like-named read-outs stand apart in the source and are kept apart here. Where a SMILES comes first, the peptide text is derived from it. [ ]: non-standard residue; d: D form.

For `CC(C)C[C@H]1NC(=O)[C@@H](CCCNC(=N)N)NC(=O)[C@@H]([C@H](C)O)NC(=O)[C@@H](CCCNC(=N)N)NC(=O)[C@H]2CCCN2C(=O)[C@@H](CCCNC(=N)N)NC(=O)[C@@H](CCCNC(=N)N)NC(=O)[C@@H](CCCNC(=N)N)NC(=O)[C@@H](CCCNC(=N)N)NC(=O)[C@@H](CCCNC(=N)N)NC(=O)[C@@H](CCCNC(=N)N)NC(=O)[C@@H](CC(N)=O)NC(=O)[C@@H](Cc2c[nH]cn2)NC(=O)[C@@H]([C@H](C)O)NC(=O)[C@@H](Cc2c[nH]cn2)NC(=O)[C@@H](CC(C)C)NC(=O)[C@@H]([C@H](C)O)NC(=O)[C@H]2CCCN2C(=O)[C@@H](CCCNC(=N)N)NC(=O)[C@@H](CC(N)=O)NC(=O)[C@@H](CCCNC(=N)N)NC(=O)[C@@H](Cc2c[nH]cn2)NC(=O)[C@@H]([C@H](C)O)NC(=O)[C@@H](Cc2c[nH]cn2)NC1=O` [cRD2D3] (cyclo([dH][dN][dR][dR][dR][dR][dR][dR][dP][dR][dT][dR][dL][dH][dT][dH][dR][dN][dR][dP][dT][dL][dH][dT])), in data set [1], the “Elimination of toxic D/I Aβ-oligomers (QIAD)” value stood at 100%. Moreover, the remaining at 8 h, 150 µM in data set [2] (human plasma (K3-EDTA), 150 µM, 37 °C, 8 h, TCA precipitation, RP-HPLC, mean of three independent experiments, read-out: Stability in human plasma, 8 h) was 91.8%; in data set [3] (simulated intestinal fluid (SIF), simulated intestinal fluid (Eur. Pharmacopoeia 7.0), 150 µM, 37 °C, 8 h, TCA precipitation, RP-HPLC, referenced to immediately stopped sample, mean of three independent experiments, read-out: Stability in SIF, 8 h), 87.2%; in data set [5] (pooled human liver microsomes, 150 µM, 37 °C, 8 h, TCA precipitation, RP-HPLC, mean of three independent experiments, read-out: Stability in human liver microsomes, 8 h) it was 89.2%; in data set [6] (simulated gastric fluid (SGF), simulated gastric fluid (Eur. Pharmacopoeia 7.0), 150 µM, 37 °C, 8 h, TCA precipitation, RP-HPLC, referenced to immediately stopped sample, mean of three independent experiments, read-out: Stability in SGF, 8 h) it was 99.7%. For the same compound, the remaining at 24 h, 150 µM in data set [2] (human plasma (K3-EDTA), 150 µM, 37 °C, 24 h, TCA precipitation, RP-HPLC, mean of three independent experiments, read-out: Stability in human plasma, 24 h) amounted to 93.7%; in data set [5] (pooled human liver microsomes, 150 µM, 37 °C, 24 h, TCA precipitation, RP-HPLC, mean of three independent experiments, read-out: Stability in human liver microsomes, 24 h), 73.6%. Also, the remaining at 48 h, 150 µM in data set [2] (human plasma (K3-EDTA), 150 µM, 37 °C, 48 h, TCA precipitation, RP-HPLC, mean of three independent experiments, read-out: Stability in human plasma, 48 h) was found to be 92.4%. Also, the remaining at 4 h, 150 µM in data set [3] (simulated intestinal fluid (SIF), simulated intestinal fluid (Eur. Pharmacopoeia 7.0), 150 µM, 37 °C, 4 h, TCA precipitation, RP-HPLC, referenced to immediately stopped sample, mean of three independent experiments, read-out: Stability in SIF, 4 h) was 96%; in data set [6] (simulated gastric fluid (SGF), simulated gastric fluid (Eur. Pharmacopoeia 7.0), 150 µM, 37 °C, 4 h, TCA precipitation, RP-HPLC, referenced to immediately stopped sample, mean of three independent experiments, read-out: Stability in SGF, 4 h), 99.5%. The “Brain concentrations relative to RD2D3” value in data set [4] (C57BL/6 mice, i.v. and i.p. administration) was “four to five times higher”. Also, the “Terminal half-life (in plasma)” value in data set [4] (C57Bl/6 wild type mice, after i.v. and i.p. administration, ref 17 (b3)) was 58 h. Besides, the Oral bioavailability result in data set [4] is “high oral bioavailability”. Also, in data set [7], the Kd was found to be 10.4 ± 0.61 µM.

For the compound `CC(C)C[C@@H](NC(=O)[C@@H](CCCNC(=N)N)NC(=O)[C@H](NC(=O)[C@@H](CCCNC(=N)N)NC(=O)[C@H]1CCCN1C(=O)[C@@H](CCCNC(=N)N)NC(=O)[C@@H](CCCNC(=N)N)NC(=O)[C@@H](CCCNC(=N)N)NC(=O)[C@@H](CCCNC(=N)N)NC(=O)[C@@H](CCCNC(=N)N)NC(=O)[C@@H](CCCNC(=N)N)NC(=O)[C@@H](CC(N)=O)NC(=O)[C@@H](Cc1c[nH]cn1)NC(=O)[C@H](NC(=O)[C@@H](Cc1c[nH]cn1)NC(=O)[C@@H](CC(C)C)NC(=O)[C@H](NC(=O)[C@H]1CCCN1)[C@H](C)O)[C@H](C)O)[C@H](C)O)C(=O)N[C@H](Cc1c[nH]cn1)C(=O)N[C@@H](C(=O)N[C@H](Cc1c[nH]cn1)C(=O)N[C@H](CCCNC(=N)N)C(=O)N[C@H](CC(N)=O)C(=O)N[C@H](CCCNC(=N)N)C(N)=O)[C@H](C)O` [RD2D3] (H-[dP][dT][dL][dH][dT][dH][dN][dR][dR][dR][dR][dR][dR][dP][dR][dT][dR][dL][dH][dT][dH][dR][dN][dR]-NH2), the “Elimination of toxic D/I Aβ-oligomers (QIAD)” value in data set [1] turned out to be 94%. Besides, the remaining at 8 h, 150 µM in data set [2] (human, plasma) is 84.7%; in data set [3] (simulated intestinal fluid) it was 93.5%; in data set [5] (human, microsomes) it was 81.9%; in data set [6] (simulated gastric fluid), 100%. In addition, the remaining at 24 h, 150 µM in data set [2] (human, plasma) was found to be 91.9%; in data set [5] (human, microsomes) it was 78.2%. In data set [2] (human, plasma), this compound returned a remaining at 48 h, 150 µM of 93.7%. Besides, the remaining at 4 h, 150 µM in data set [3] (simulated intestinal fluid) and in data set [6] (simulated gastric fluid) was 100% each time. Besides, the “Terminal half-life (in plasma)” value in data set [4] (mouse, in vivo) was 2.3 h. Further, the Kd in data set [7] was 7.01 ± 0.31 µM.

Usually Kd stands for the concentration at which binding is half-saturated.
